Experimental data taken from patent EP3964206A1, “COMPOUNDS FOR THE TREATMENT OF COVID-19” (priority 2020, dated 2022).
Where a name gives a salt, the structure may show the parent alone. Read-outs that look alike come from different tables or passages of the source.

Test system: SARS-CoV-2
Experiment: microbe, parasite or virus in culture
Assay type: cell-based
Details: for Emax: read-out: Maximum confluence reached (%)
[1] = Severe acute respiratory syndrome coronavirus 2, 120 h

| Compound | Emax [1] | IC50 [1] | other results |
| --- | --- | --- | --- |
| CC(C)c1cnn2c(NCc3ccccc3)cc(NCCCCCCN)nc12 [Compound 48, N5-(6-Aminohexyl)-N7-benzyl-3-isopropylpyrazolo[1,5-a]pyrimidine-5,7-diamine] | 47.3% |  |  |
| N#Cc1cccc(C#N)c1-c1nc2c3ccc(Cl)cc3c3ccccc3c2[nH]1 [Compound 64, 2-(6-Chloro-1H-phenanthro[9,10-d]imidazol-2-yl)benzene-1,3-dicarbonitrile] | 98.5% |  |  |
| Oc1c(Cl)cc(Cl)cc1Sc1cc(Cl)cc(Cl)c1O [Compound 102, 2,2'-Thio-bis(4,6-dichlorophenol)] | 31.2% |  |  |
| CC(C)(C)c1cc(C=C(C#N)C#N)cc(C(C)(C)C)c1O [Compound 66, (3,5-Di-tert-butyl-4-hydroxybenzylidene)malononitrile] | 47.6% |  |  |
| Cn1c(Nc2ccc(C(F)(F)F)cc2)nc2cc(Oc3ccnc(-c4nc(C(F)(F)F)c[nH]4)c3)ccc21 [Compound 70, 1-Methyl-N-[4-(trifluoromethyl)phenyl]-5-[2-[4-(trifluoromethyl)-1H-imidazol-2-yl]pyridin-4-yloxy]-1H-benzimidazol-2-amine] | 44.1% |  |  |
| CC(C)N1CCN(c2ccc(C(=O)c3c(-c4ccc(O)cc4)sc4cc(O)ccc34)cc2)CC1 [Compound 87, 1-[6-Hydroxy-2-(4-hydroxyphenyl)-1-benzothien-3-yl]-1-[4-(4-isopropylpiperazin-1-yl)phenyl]methanone] | 41% |  |  |
| CN(C)CCC=C1c2ccccc2C=Cc2ccccc21 [Compound 90, 3-(5H-Dibenzo[a,d]cyclohepten-5-ylidene)-N,N-dimethylpropan-1-amine hydrochloride] | 70.2% | 12.1 µM |  |
| CN(C)c1cccc(-c2c3c(=O)n(-c4ccccc4Cl)[nH]c3cc(=O)n2C)c1 [Compound 13, 2-(2-Chlorophenyl)-4-[3-(dimethylamino)phenyl]-5-methyl-1H-pyrazolo[4,3-c]pyridine-3,6(2H,5H)-dione] | 102% | 7.57 µM |  |
| CC(=O)[C@]1(O)Cc2c(O)c3c(c(O)c2[C@@H](O[C@H]2C[C@H](N)[C@H](O)[C@H](C)O2)C1)C(=O)c1ccccc1C3=O [Compound 38, (7S,9S)-9-Acetyl-7-[(3-amino-2,3,6-trideoxy-alpha-L-lyxo-hexopyranosyl)oxy]-7,8,9,10-tetrahydro-6,9,11-trihydroxy-5,12-naphthacenedione hydrochloride] | 92.6% |  |  |
| O=C(O)c1ccc(N2C(=O)C(=Cc3ccc(-c4ccc([N+](=O)[O-])cc4)o3)C=C2c2ccccc2)cc1 [Compound 105, 4-[3-[5-(4-Nitrophenyl)furan-2-ylmethylene]-2-oxo-5-phenyl-2,3-dihydro-1H-pyrrol-1-yl]benzoic acid] | 52.1% | 236 µM |  |
| Cc1[nH]c(/C=C2\C(=O)Nc3ccc(S(=O)(=O)Cc4c(Cl)cccc4Cl)cc32)c(C)c1C(=O)N1CCC[C@@H]1CN1CCCC1 [Compound 53, 5-(2,6-Dichlorobenzylsulfonyl)-3(Z)-[3,5-dimethyl-4-[2(R)-(pyrrolidin-1-ylmethyl)pyrrolidin-1-ylcarbonyl]-1H-pyrrol-2-ylmethylene]-2,3-dihydro-1H-indol-2-one] | 95.7% |  |  |
| CC(C)(C)C(=O)C(=Cc1cccc([N+](=O)[O-])c1)n1cncn1 [Compound 76, 4,4-dimethyl-1-(3-nitrophenyl)-2-(1H-1,2,4-triazol-1-yl)-1-penten-3-one] | 50.4% | 4.33 µM |  |
| CCN(CC)Cc1cc(Nc2ccnc3cc(Cl)ccc23)ccc1O [Compound 106, 4-(7-Chloroquinolin-4-ylamino)-2-(diethylaminomethyl)phenol hydrochloride] | 37.5% | 21.5 µM |  |
| Cn1cc(-c2ccncc2)c(-c2ccc(OCc3ccc4ccccc4n3)cc2)n1 [Compound 83, 2-[4-[1-Methyl-4-(4-pyridyl)-1H-pyrazol-3-yl]phenoxymethyl]quinoline succinate] | 36.7% |  |  |
| CNCc1ccc(-c2cc(-c3nc(-c4ccc(S(=O)(=O)C(C)C)cc4)cnc3N)on2)cc1 [Compound 34, 3-[3-[4-[(Methylamino)methyl]phenyl]-1,2-oxazol-5-yl]-5-[4-(propan-2-ylsulfonyl)phenyl]pyrazin-2-amine] | 99.2% |  |  |
| CN(Cc1cnc2nc(N)nc(N)c2n1)c1ccc(C(=O)N[C@@H](CCC(=O)O)C(=O)O)cc1 [Compound 1, N-[4-[N-(2,4-Diaminopteridin-6-ylmethyl)-N-methylamino]benzoyl]-L-glutamic acid] | 64% | 0.05 µM |  |
| Nc1ncnc2c1ncn2[C@@H]1CC[C@@H](O)[C@H]1O [Compound 74, (1R,2S,3R)-9-(2,3-Dihydroxycyclopentyl)adenine] | 38% |  |  |
| Nc1nc(N)c2nc(CNc3ccc(C(=O)N[C@@H](CCC(=O)O)C(=O)O)cc3)cnc2n1 [Compound 10, N-[4-(2,4-diamino-6-pteridinylmethylamino)benzolyl]-L-glutamic acid] | 72.5% |  |  |
| COc1ccccc1[C@H](Cn1c(=O)n(C(C)(C)C(=O)O)c(=O)c2c(C)c(-c3ncco3)sc21)OC1CCOCC1 [Compound 61, 2-[1-[(2R)-2-(2-Methoxyphenyl)-2-(tetrahydro-2H-pyran-4-yloxy)ethyl]-5-methyl-6-(1,3-oxazol-2-yl)-2,4-dioxo-1,4-dihydrothieno[2,3-d]pyrimidin-3(2H)-yl]-2-methylpropanoic acid] | 78.2% |  |  |

| Compound | Emax [1] | IC50 [1] | other results |
| --- | --- | --- | --- |
| C[C@@H]1C[C@@H]([C@H](O)CC2CC(=O)NC(=O)C2)C(=O)[C@@H](C)C1 [Compound 58, 4-[2(R)-[(1S,3S,5S)-3,5-Dimethyl-2-oxocyclohexyl]-2-hydroxyethyl]piperidine-2,6-dione] | 63.7% |  |  |
| (4R,4aS)-18-Ethenyl-4,4a-dihydro-3,4-bis(methoxycarbonyl)-4a,8,14,19-tetramethyl-24H,26H-benzo[b]porphine-9,13-dipropanoic acid monomethyl ester [Compound 39] |  |  | Maximum confluence reached (%): 89.5%; IC50 (read-out: IC50): 30 µM |
| CCCCOCCOc1ccc(-c2ccc3c(c2)C=C(C(=O)Nc2ccc([S@@+]([O-])Cc4cncn4CCC)cc2)CCCN3CC(C)C)cc1 [Compound 65, (-)-(S)-8-[4-(2-Butoxyethoxy)phenyl]-1-isobutyl-N-[4-(1-propyl-1H-imidazol-5-ylmethylsulfinyl)phenyl]-1,2,3,4-tetrahydro-1-benzazocine-5-carboxamide] | 70.9% | 55 µM |  |
| COc1cc2ncnc(Nc3cccc(Br)c3)c2cc1OC [Compound 68, 4-(3-Bromophenylamino)-6,7-dimethoxyquinazoline] | 54.5% |  |  |
| (1R,2S,3R)-3-(6-Amino-9H-purin-9-yl)-1,2-cyclopentanediol [Compound 75] |  |  | Maximum confluence reached (%): 33.14%; IC50 (read-out: IC50): 0.36 µM |
| CCCc1c(-c2ccc(O)cc2)nn(-c2ccc(O)cc2)c1-c1ccc(O)cc1 [Compound 88, 1,3,5-Tris(4-hydroxyphenyl)-4-propyl-1H-pyrazole] | 48.2% | 8.3 µM |  |
| Cc1cc(O[C@@H](CCC(F)(F)F)c2ccc(C(=O)NCCC(=O)O)cc2)cc(C)c1-c1ccc(C(C)(C)C)cc1 [Compound 57, N-(4-[(1S)-1-[(4'-tert-Butyl-2,6-dimethylbiphenyl-4-yl)oxy]-4,4,4-trifluorobutyl]benzoyl)-beta-alanine] | 39.5% |  |  |
| C[C@@H]1COCCN1c1cc(=O)n2c(n1)N(Cc1cncc(Cl)c1)[C@H](C(F)(F)F)CC2 [Compound 54, (8S)-9-[(5-Chloropyridin-3-yl)methyl]-2-[(3R)-3-methylmorpholin-4-yl]-8-(trifluoromethyl)-6,7,8,9-tetrahydro-4H-pyrimido[1,2-a]pyrimidin-4-one] | 89% |  |  |
| Cn1nc(C(C)(C)C)cc1C(=O)N[C@@H](Cc1cccc(Cl)c1)C(=O)NCC#N [Compound 63, 3-tert-butyl-N-{(1S)-1-(3-chlorobenzyl)-2-[(cyanomethyl)amino]-2-oxoethyl}-1-methyl-1H-pyrazole-5-carboxamide] | 96.2% |  |  |
| C/C(=C\c1ccc(C(=O)O)cc1)c1ccc2c(c1)C(C)(C)CCC2(C)C [Compound 26, 4-[2-(5,5,8,8-Tetramethyl-5,6,7,8-tetrahydronaphthalen-2-yl)-1(E)-propenyl]benzoic acid] | 106% | 33.7 µM |  |
| O=S(=O)(NCC1CC1)c1ccc(Nc2nccc(N3CCCc4cc(O)ccc43)n2)cc1 [Compound 86, N-(Cyclopropylmethyl)-4-[[4-(3,4-dihydro-6-hydroxy-1(2H)-quinolinyl)-2-pyrimidinyl]amino]benzenesulfonamide] | 55% |  |  |
| CC(C)(C)c1cc(C=C(C#N)C#N)cc(Br)c1O [Compound 99, 2-(3-Bromo-5-tert-butyl-4-hydroxybenzylidene)propanedinitrile] | 37.3% | 7.23 µM |  |
| Cc1ccc(NC(=O)Nc2cc(C(F)(F)F)ccc2F)cc1Nc1ccc2c(c1)NC(=O)C2=Cc1ccc[nH]1 [Compound 92, 1-[2-Fluoro-5-(trifluoromethyl)phenyl]-3-[4-methyl-3-[2-oxo-3-(1H-pyrrol-2-ylmethylene)-2,3-dihydro-1H-indol-6-ylamino]phenyl]urea] | 75.5% | 5.23 µM |  |
| CC(C)(C)c1cc(C=C(C#N)C#N)cc(C(C)(C)C)c1O [Compound 103, (3,5-Di-tert-butyl-4-hydroxybenzylidene)malononitrile] |  | 205 µM |  |
| c1cncc(CN2CCC(n3ncc4c(N5CCOCC5)nc(-c5ccc6[nH]ccc6c5)nc43)CC2)c1 [Compound 32, 6-(1H-Indol-5-yl)-4-(4-morpholinyl)-1-[1-(pyridin-3-ylmethyl)piperidin-4-yl]-1H-pyrazolo[3,4-d]pyrimidine] | 67.7% |  |  |
| CN1CCN(CCCN2c3ccccc3Sc3ccc(C(F)(F)F)cc32)CC1 [Compound 94, 10-[3-(4-Methylpiperazin-1-yl)propyl]-2-(trifluoromethyl)-10H-phenothiazine dihydrochloride] | 38% |  |  |
| OCCNC1CCCc2c1[nH]c1ccc(-c3ccccc3)cc21 (centres unmarked) [Compound 77, 2-[(6-Phenyl-2,3,4,9-tetrahydro-1H-carbazol-1-yl)amino]ethanol] | 50.8% |  |  |
| Cc1ccc(NC(=O)c2ccc(CN3CCN(C)CC3)cc2)cc1Nc1nc(-c2cccnc2)cs1 [Compound 50, 4-[(4-methylpiperazin-1-yl)methyl]-N-[4-methyl-3-[(4-pyridin-3-yl-1,3-thiazol-2-yl)amino]phenyl]benzamide] | 57.1% |  |  |
